Measurements published in patent US8273754B2, “Substituted 1H-pyrazolo[3,4-D]pyrimidine-6-amine compounds” (ArQule, Inc., priority 2008, dated 2012).
Read-outs that look alike come from different tables or passages of the source.

Tests used:
cancer cells = experiment: MTS cell growth inhibition assay (72 hours); format: cell-based
Outline: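 Growth inhibition read as formazan absorbance at 492 nm after 4 h MTS/PMS, following 72 h compound exposure at 37 °C in 1% FBS DMEM (cells pre-seeded 18 h). IC50 = 50% absorbance reduction; inhibition graded in bands.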

FGFR2 (N549H) = target: T1, FGFR2 (N549H) (Homo sapiens, UniProt P21802, N549H); experiment: fluorescent ELISA assay for inhibitors of FGFR2 kinase; format: biochemical; details: Pyk2 peptide substrate, 60 minutes
T1 construct: purchased Millipore 14-742
T1 sequence (P21802 22-821 N549H): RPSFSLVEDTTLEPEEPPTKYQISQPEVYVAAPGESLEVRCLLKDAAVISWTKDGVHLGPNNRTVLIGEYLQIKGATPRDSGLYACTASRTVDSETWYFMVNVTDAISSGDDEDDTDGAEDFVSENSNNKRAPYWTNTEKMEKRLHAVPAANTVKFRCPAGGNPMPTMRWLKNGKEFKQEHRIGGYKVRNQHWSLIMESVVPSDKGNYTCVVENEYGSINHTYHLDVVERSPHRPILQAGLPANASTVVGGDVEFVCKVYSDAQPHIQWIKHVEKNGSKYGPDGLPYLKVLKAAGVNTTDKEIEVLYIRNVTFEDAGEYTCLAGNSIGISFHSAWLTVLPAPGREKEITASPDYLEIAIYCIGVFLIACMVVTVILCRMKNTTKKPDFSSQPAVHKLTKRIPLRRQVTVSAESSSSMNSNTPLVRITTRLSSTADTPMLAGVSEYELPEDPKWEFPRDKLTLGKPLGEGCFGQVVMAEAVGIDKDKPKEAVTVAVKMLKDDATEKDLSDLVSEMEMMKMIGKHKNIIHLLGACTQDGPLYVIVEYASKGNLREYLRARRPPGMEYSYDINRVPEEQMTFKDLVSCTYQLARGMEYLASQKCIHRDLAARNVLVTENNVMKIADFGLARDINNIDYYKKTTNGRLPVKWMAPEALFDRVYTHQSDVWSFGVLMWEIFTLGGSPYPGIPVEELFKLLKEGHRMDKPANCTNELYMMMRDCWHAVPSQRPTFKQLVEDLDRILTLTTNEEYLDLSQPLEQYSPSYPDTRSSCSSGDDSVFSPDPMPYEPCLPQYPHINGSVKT
Experimental: The enzymatic assays described herein are conducted according to the following procedures from commercially available reagents. In one non-limiting example, a fluorescent ELISA assay is used to identify and characterize inhibitors of FGFR2 kinase as described herein. This heterogeneous assay utilizes a biotinylated peptide with a tyrosine motif as a substrate and an anti-phospho-tyrosine antibody to measure phosphorylation of the substrate. The reaction is initiated by adding the test compound, 37 μM Pyk2 substrate (Midwest Biotech, Cat. #MBT2383), 12.5 μM ATP (Roche, Cat. #11 140 965 001) and 0.5 μM FGFR2 enzyme (Millipore, Cat. #14-742) sequentially to a non-binding polypropylene V-well plate. All reagents are in an assay buffer consisting of: 50 mM Tris-HCL, 0.02 mg/ml BSA, 10 mM MgCl2, 0.1 mM Na3VO4, 1 mM EGTA, 75 μM ATP, 0.01% NP-40, 2 mM DTT and 10% glycerol. The reaction is incubated for 60 minutes. As the reaction proceeds, FGFR2 phosphorylates tyrosines in the peptide. The reaction mixture is then moved to a blocked streptavidin-coated Nunc Maxisorb plate (coated with 100 ng streptavidin from Pierce (Cat. #15-124) per well), allowing for the capture of the biotinylated peptide. Peptides are captured for 30 minutes at room temperature, the phosphorylation of peptides continues during this phase. The reaction is stopped by washing the streptavidin-coated plate 6 times with TBST. Phosphorylated peptide is detected by adding anti-phospho-tyrosine antibody (Cell Signaling, Cat. #9411, diluted 1:3000) to the streptavidin-coated plate. Unbound anti-phospho-tyrosine antibody is removed by washing the streptavidin-coated plate 6 times with TBST. Secondary detection is performed using alkaline phosphatase tagged goat anti-mouse antibody (Pierce, Cat. #31320, diluted 1:4000) for one hour. Unbound secondary antibody is removed by washing the streptavidin-coated plate 6 times with TBST. The fluorescent readout is initiated by adding to the streptavidin-coated plate Promega Attophos substrate (Promega, Cat. #S1000, dilution=6 mg/10 ml), which, when dephosphorylated by alkaline phosphatase, emits a fluorescent signal of 595 nm in wavelength when excited by a signal of 400 nm in wavelength. The reading of the 595 nm signal is done on the Perkin Elmer Envision system. Compounds which prevent FGFR2 from phosphorylating the peptide result in a lower fluorescent signal. The 595 nm fluorescent signal is directly proportional to the activity of FGFR2. Thus, the inhibition of FGFR2 by compounds is monitored by the decrease in the 595 nm fluorescent signal.

[1] = Homo sapiens, DLD-1, 72 h, DLD-1 cells, read-out: DLD-1 MTS 72 hr at 10 μM
[2] = Homo sapiens, KATO III, 72 h, KATO III cells, read-out: KATO III MTS 72 hr at 10 μM
[3] = Homo sapiens, MDA-MB-231, 72 h, MDA-MB-231 cells, read-out: MDA-MB-231 MTS 72 hr at 10 μM
[4] = Homo sapiens, NCI-H1299, 72 h, NCI-H1299 cells, read-out: NCI-H1299 MTS 72 hr at 10 μM
[5] = PaCa-2, 72 h, PACA-2 cells, read-out: PACA-2 MTS 72 hr at 10 μM

melting point | IC50 (FGFR2 (N549H)) | SMILES | inhibition at 10 µM (cancer cells; [1]) | inhibition at 10 µM (cancer cells; [2]) | inhibition at 10 µM (cancer cells; [3]) | inhibition at 10 µM (cancer cells; [4]) | inhibition at 10 µM (cancer cells; [5])
140 to 143 °C | 0.22 µM | Nc1nc(N[C@@H]2Cc3ccccc3N(Cc3ccc(F)cc3)C2)c2cn[nH]c2n1 [Compound 9, (R)—N4-(1-(4-fluorobenzyl)-1,2,3,4-tetrahydroquinolin-3-yl)-1H-pyrazolo[3,4-d]pyrimidine-4,6-diamine] | 50 to 79% | > 79% | < 50% | 50 to 79% | 50 to 79%
89 to 94 °C | 10.7 µM | Nc1nc(NC2Cc3ccccc3N(Cc3cccc(C(F)(F)F)c3)C2)c2cn[nH]c2n1 (stereo not drawn) [Compound 5, N^4-(1-(3-(trifluoromethyl)benzyl)-1,2,3,4-tetrahydroquinolin-3-yl)-1H-pyrazolo[3,4-d]pyrimidine-4,6-diamine] | < 50% | 50 to 79% | < 50% | < 50% | < 50%
117 to 122 °C | 0.17 µM | Nc1nc(NC2Cc3ccccc3N(CCc3ccccc3)C2)c2cn[nH]c2n1 (stereo not drawn) [Compound 2, N^4-(1-(2-phenylethyl)-1,2,3,4-tetrahydroquinolin-3-yl)-1H-pyrazolo[3,4-d]pyrimidine-4,6-diamine] | 50 to 79% | 50 to 79% | < 50% | 50 to 79% | < 50%
155 to 164 °C | 21 µM | Nc1nc(NC2Cc3ccccc3N(C(=O)c3ccccc3)C2)c2cn[nH]c2n1 (stereo not drawn) [Compound 12, (3-(6-amino-1H-pyrazolo[3,4-d]pyrimidin-4-ylamino)-3,4-dihydroquinolin-1(2H)-yl)(phenyl)methanone] | < 50% | < 50% | < 50% | < 50% | < 50%
88 to 92 °C | 2.08 µM | Nc1nc(NC2Cc3ccccc3N(c3ccccc3)C2)c2cn[nH]c2n1 (stereo not drawn) [Compound 11, N^4-(1-phenyl-1,2,3,4-tetrahydroquinolin-3-yl)-1H-pyrazolo[3,4-d]pyrimidine-4,6-diamine] | < 50% | < 50% | < 50% | < 50% | < 50%
78 to 80 °C | 11 µM | Nc1nc(N[C@H]2Cc3ccccc3N(Cc3ccc(F)cc3)C2)c2cn[nH]c2n1 [Compound 8, N^4-((3S)-1-(4-fluorobenzyl)-1,2,3,4-tetrahydroquinolin-3-yl)-1H-pyrazolo[3,4-d]pyrimidine-4,6-diamine] | > 79% | > 79% | < 50% | < 50% | < 50%
– | 3.97 µM | Nc1nc(NC2Cc3ccccc3N(Cc3ccc(Cl)c(Cl)c3)C2)c2cn[nH]c2n1 (stereo not drawn) [Compound 7, N^4-(1-(3,4-dichlorobenzyl)-1,2,3,4-tetrahydroquinolin-3-yl)-1H-pyrazolo[3,4-d]pyrimidine-4,6-diamine] | > 79% | > 79% | > 79% | > 79% | > 79%
– | 2.58 µM | Nc1nc(NC2Cc3ccccc3N(S(=O)(=O)c3cccs3)C2)c2cn[nH]c2n1 (stereo not drawn) [Compound 23, N4-(1-(thiophen-2-ylsulfonyl)-1,2,3,4-tetrahydroquinolin-3-yl)-1H-pyrazolo[3,4-d]pyrimidine-4,6-diamine] | < 50% | < 50% | < 50% | < 50% | < 50%
– | 0.38 µM | Nc1nc(NC2Cc3ccccc3N(S(=O)(=O)c3ccccc3F)C2)c2cn[nH]c2n1 (stereo not drawn) [Compound 45, N4-(1-(2-fluorophenylsulfonyl)-1,2,3,4-tetrahydroquinolin-3-yl)-1H-pyrazolo[3,4-d]pyrimidine-4,6-diamine] | < 50% | < 50% | < 50% | < 50% | < 50%
– | > 30 µM | COc1ccc(OC)c(CN2CC(Nc3nc(N)nc4[nH]ncc34)Cc3ccccc32)c1 (stereo not drawn) [Compound 121, N4-(1-(2,5-dimethoxybenzyl)-1,2,3,4-tetrahydroquinolin-3-yl)-1H-pyrazolo[3,4-d]pyrimidine-4,6-diamine] | < 50% | > 79% | < 50% | < 50% | < 50%
– | 0.03 µM | Nc1nc(NC2Cc3ccccc3N(S(=O)(=O)c3cccc(Cl)c3)C2)c2cn[nH]c2n1 (stereo not drawn) [Compound 26, N4-(1-(3-chlorophenylsulfonyl)-1,2,3,4-tetrahydroquinolin-3-yl)-1H-pyrazolo[3,4-d]pyrimidine-4,6-diamine] | > 79% | > 79% | 50 to 79% | < 50% | > 79%
– | > 30 µM | CC(C)(C)c1ccc(S(=O)(=O)N2CC(Nc3nc(N)nc4[nH]ncc34)Cc3ccccc32)cc1 (stereo not drawn) [Compound 33, N4-(1-(4-tert-butylphenylsulfonyl)-1,2,3,4-tetrahydroquinolin-3-yl)-1H-pyrazolo[3,4-d]pyrimidine-4,6-diamine] | 50 to 79% | 50 to 79% | 50 to 79% | < 50% | > 79%
– | 3.6 µM | Nc1nc(NC2Cc3ccccc3N(S(=O)(=O)c3ccc(Br)cc3)C2)c2cn[nH]c2n1 (stereo not drawn) [Compound 37, N4-(1-(4-bromophenylsulfonyl)-1,2,3,4-tetrahydroquinolin-3-yl)-1H-pyrazolo[3,4-d]pyrimidine-4,6-diamine] | < 50% | < 50% | < 50% | < 50% | < 50%
– | 1.67 µM | Cc1cccc(CN2CC(Nc3nc(N)nc4[nH]ncc34)Cc3ccccc32)c1 (stereo not drawn) [Compound 122, N4-[1-(3-methylbenzyl)-1,2,3,4-tetrahydroquinolin-3-yl]-1H-pyrazolo[3,4-d]pyrimidine-4,6-diamine] | < 50% | 50 to 79% | < 50% | < 50% | 50 to 79%
– | > 30 µM | Cn1ccc(S(=O)(=O)N2CC(Nc3nc(N)nc4[nH]ncc34)Cc3ccccc32)n1 (stereo not drawn) [Compound 54, N4-(1-(1-methyl-1H-pyrazol-3-ylsulfonyl)-1,2,3,4-tetrahydroquinolin-3-yl)-1H-pyrazolo[3,4-d]pyrimidine-4,6-diamine] | < 50% | < 50% | < 50% | < 50% | < 50%
– | 7.83 µM | Nc1nc(NC2Cc3ccccc3N(CCc3ccc(Cl)cc3Cl)C2)c2cn[nH]c2n1 (stereo not drawn) [Compound 3, N^4-(1-(2-(2,4-dichlorophenyl)ethyl)-1,2,3,4-tetrahydroquinolin-3-yl)-1H-pyrazolo[3,4-d]pyrimidine-4,6-diamine] | > 79% | > 79% | > 79% | > 79% | > 79%
– | > 0.3 µM | Nc1nc(NC2Cc3ccccc3N(S(=O)(=O)c3ccc(NC(=O)Nc4ccc(Cl)c(C(F)(F)F)c4)cc3)C2)c2cn[nH]c2n1 (stereo not drawn) [Compound 222, 1-(4-(3-(6-amino-1H-pyrazolo[3,4-d]pyrimidin-4-ylamino)-3,4-dihydroquinolin-1(2H)-ylsulfonyl)phenyl)-3-(4-chloro-3-(trifluromethyl)phenyl)urea] | > 79% | > 79% | > 79% | > 79% | > 79%
